Measured values: PMC10846744, “Cathelicidin peptide analogues inhibit EV71 infection through blocking viral entry and uncoating” (PLOS Pathogens, 2024)

What was measured:
EV71 virions = test: Viral particle stability thermal release assay (PaSTRY); design: species or system enterovirus 71 (EV71); settings: EV71 MOI = 10 pre-incubated with LL-18 or NaCl, SYBR green II, heated 25°C to 80°C; PBS control around 45°C
Experimental: Fig 6 LL-18 stabilizes the viral particles by inhibiting uncoating. (A) EV71 virus (MOI = 10) was pre-incubated with PBS, indicated amount of LL-18 or NaCl for 1 hr and then mixed with SYBR green dyes II before they were heated to indicated temperatures. The fluorescent signals were measured and plotted against temperature. PBS was used as a negative control. (B) EV71 virus (MOI = 10) was pre-incubated with PBS, LL-18, or 12s for 2 hrs. Half of the samples were then treated with 1.5 μg SCARB2 protein and incubated at 37°C for 2 hrs at pH 5.5. Samples were then subjected to ultracentrifugation as detailed in materials and methods. The numbers above represent the fractions collected from top to bottom.
EV71 viruses were preincubated with either PBS, NaCl or the indicated amount of LL-18 at room temperature for 2 hrs, before Sybr green II dye (3× working concentration, Solarbio, China) and RNase inhibitor (1 U/μL, Thermo Scientific) were added. The mixture was heated from 25°C to 80°C with an increment of 0.5°C for 30 seconds, and the fluorescence from SYBR green was monitored with a QuantGene 9600 real-time PCR system (Bioer, China).

RD cells = test: Cytotoxicity of peptides on RD cells (Cell Titer-Glo); assay type: cell-based, human; settings: cell viability plotted against peptide concentration, Cell Titer-Glo (S1A-S1D Fig)
Experimental: To test whether Cathelicidin peptide (LL-37) and its analogues could inhibit enterovirus infection, we conducted viral infection inhibition test on RD cells, which are one of the most commonly used cells for enterovirus propagation. We first assessed the cytotoxicity of LL-37, LL-18, FF-18, and a short form of LL-37 (DL-37) (Fig 1A), and all the peptides tested have a CC50 over 50 μM (S1A–S1D Fig). We then chose lower concentrations to test their antiviral activity. […] In addition, EV71 infection could cause cytopathic effect (CPE) on RD cells, and peptide could rescue EV71-induced cell death as assayed by crystal violet staining (Fig 1E) or cellular ATP content measurement (Fig 1F).
(§1) Cell viability assays were carried out using the Cell Titer-Glo Luminescent Cell Viability Assay Kit (Promega, Madison, WI) following the manufacturer’s instructions. Luminescence signals were measured using a BioTek Neo2 microplate reader.
(A-D) Cell viability of RD cells treated with the indicated amount of DL-37 (A), LL-37 (B), LL-18 (C), or FF-18 (D) was plotted against peptide concentration, and the cytotoxicity was determined. (E) EV71 virus pre-incubated with indicated amounts of DL-37, and the cell viability was determined 24 h.p.i. ***, P<0.001. (F-G) CVB5 (F) or Echo7 (G) virus pre-incubated with 0.3, 0.9, or 1.5 μM of peptides were used to infect RD cells. Cell viability was determined 24 h.p.i. ***, P<0.001. (H-I) CVB5 (H) or Echo7 (I) virus pre-incubated with 3, 6, or 12 μM of peptides were used to infect RD cells. Cell viability was determined 24 h.p.i. ***, P<0.001. (TIF) Click here for additional data file.

EV71 virus [1] = test: EV71 infection inhibition on RD cells (VP1 immunoblot, viral titer, cell viability/CPE); assay type: cell-based, enterovirus 71 (EV71); settings: RD cells; for inhibition of EV71 infection at 0.3, 0.9, or 1.5 μM / inhibition of EV71 infection at higher concentration: cell viability or viral titer 24 h.p.i; for inhibition of EV71 infection at 0.3, 0.9, or 1.5 μM: 0.3, 0.9, or 1.5 μM peptide; for inhibition of EV71 infection at higher concentration: much higher concentration than 1.5 μM
Experimental: Synthetic peptides were purchased from Bioyears Co. Ltd. (Wuhan, China) with purity of more than 95% and dissolved in PBS. To test their inhibitory effects, the EV71 virus (MOI = 1) was incubated with the indicated amount of peptide at room temperature for 1 hr before the mixture was added to RD cells and maintained throughout the experiment. Cell viability, viral titer, or viral protein expression was determined 24 h.p.i. For the time-of-addition experiment, viruses were either pre-incubated with peptides (for the -2 and -1 time points), the mixture was added to the cells simultaneously (for 0 time point), or peptides were added after virus infection (for 1, 2, 4 and 7 h time points) and the virus/peptide was maintained in the culture before cell viability, viral titer, or viral protein expression was determined 24 h.p.i. The TCID50 of the virus was calculated according to the Reed-Muench method.
Cells were treated as described and harvested with LDS sample buffer (Thermo Fisher Scientific). After denaturation, samples were separated on 10% SDS-PAGE gel and then transferred to a polyvinylidene fluoride (PVDF) membrane. The proteins were blocked using 5% skimmed milk and probed with the corresponding antibodies. The following antibodies were used in this study: EV71 VP1 polyclonal antibody (GeneTex, Taiwan, China), β-Actin antibody (Zen BioScience, Chengdu, China), pan-Enterovirus Monoclonal antibody (Thermo Fisher Scientific). The chemiluminescence signals were visualized using ECL Advance reagents (Mishubio, China), and the images were acquired using the FUSION Solo S Imaging System (VILBER, France).
as §1
For crystal violet staining, cells treated as indicated were first washed once with PBS, followed by fixation with 4% PFA. Cells were then stained with 0.5% crystal violet for 2 hrs before they were extensively washed with water.

EV71 virus [2] = test: 1H NMR titration of peptide with EV71 virus; assay type: binding, enterovirus 71 (EV71); settings: molar ratio peptide to virus 90:1, 800 MHz, 298k
Experimental: (§2) The NMR titrations were performed on a Bruker 800 MHz (Avance NEO) spectrometer equipped with cryo-probe. The molar ratio of the peptide to the virus was 90:1. The experiments were recorded using zgespg pulse for 128 scans at 298k and the results were analyzed by Topspin.

CVB5 virus = test: 1H NMR titration of peptide with CVB5 virus; assay type: binding, coxsackievirus B5; settings: molar ratio peptide to virus 90:1, 800 MHz, 298k
Experimental: as §2

| Compound | temperature of peak SYBR green fluorescence intensity (RNA release) (EV71 virions) [°C] | CC50 (RD cells) | inhibition of EV71 infection at 0.3, 0.9, or 1.5 μM (EV71 virus [1]) | inhibition of EV71 infection at higher concentration (EV71 virus [1]) | inhibition of EV71 infection (overall conclusion) (EV71 virus [1]; VP1 expression, viral titer, crystal violet and Cell Titer Glo 24 h.p.i) | interaction of peptide with EV71 virus by 1H 1D NMR (amide region) (EV71 virus [2]) | interaction of peptide with CVB5 virus by 1H 1D NMR (amide region) (CVB5 virus) |
| --- | --- | --- | --- | --- | --- | --- | --- |
| [Cl-].[Na+] [NaCl, reference compound] | 55 |  |  |  |  |  |  |
| CC[C@H](C)[C@H](NC(=O)[C@H](CCCCN)NC(=O)[C@H](CCC(=O)O)NC(=O)[C@H](CCCCN)NC(=O)[C@H](CO)NC(=O)[C@H](CCCCN)NC(=O)[C@H](CCCNC(=N)N)NC(=O)[C@@H](N)Cc1ccccc1)C(=O)NCC(=O)N[C@@H](CCCCN)C(=O)N[C@@H](CCC(=O)O)C(=O)N[C@@H](Cc1ccccc1)C(=O)N[C@@H](CCCCN)C(=O)N[C@@H](CCCNC(=N)N)C(=O)N[C@H](C(=O)N[C@H](C(=O)N[C@@H](CCC(N)=O)C(=O)N[C@@H](CCCNC(=N)N)C(=O)N[C@H](C(=O)N[C@@H](CCCCN)C(=O)N[C@@H](CC(=O)O)C(=O)N[C@@H](Cc1ccccc1)C(=O)N[C@@H](CC(C)C)C(=O)N[C@@H](CCCNC(=N)N)C(=O)N[C@@H](CC(N)=O)C(=O)N[C@@H](CC(C)C)C(=O)N[C@H](C(=O)O)C(C)C)[C@@H](C)CC)C(C)C)[C@@H](C)CC (racemic) [DL-37] |  | over 50 μM | could not inhibit EV71 infection | only showed inhibition at a much higher concentration | little antiviral activity |  |  |
| CC[C@H](C)[C@H](NC(=O)[C@H](CCCCN)NC(=O)[C@H](CCC(=O)O)NC(=O)[C@H](CCCCN)NC(=O)[C@H](CO)NC(=O)[C@H](CCCCN)NC(=O)[C@H](CCCNC(=N)N)NC(=O)[C@H](Cc1ccccc1)NC(=O)[C@H](Cc1ccccc1)NC(=O)[C@H](CC(=O)O)NC(=O)CNC(=O)[C@H](CC(C)C)NC(=O)[C@@H](N)CC(C)C)C(=O)NCC(=O)N[C@@H](CCCCN)C(=O)N[C@@H](CCC(=O)O)C(=O)N[C@@H](Cc1ccccc1)C(=O)N[C@@H](CCCCN)C(=O)N[C@@H](CCCNC(=N)N)C(=O)N[C@H](C(=O)N[C@H](C(=O)N[C@@H](CCC(N)=O)C(=O)N[C@@H](CCCNC(=N)N)C(=O)N[C@H](C(=O)N[C@@H](CCCCN)C(=O)N[C@@H](CC(=O)O)C(=O)N[C@@H](Cc1ccccc1)C(=O)N[C@@H](CC(C)C)C(=O)N[C@@H](CCCNC(=N)N)C(=O)N[C@@H](CC(N)=O)C(=O)N[C@@H](CC(C)C)C(=O)N[C@H](C(=O)N1CCC[C@H]1C(=O)N[C@@H](CCCNC(=N)N)C(=O)N[C@H](C(=O)N[C@@H](CCC(=O)O)C(=O)N[C@@H](CO)C(=O)O)[C@@H](C)O)C(C)C)[C@@H](C)CC)C(C)C)[C@@H](C)CC [LL-37, reference compound] |  | over 50 μM | could not inhibit EV71 infection | only showed inhibition at a much higher concentration |  | no interaction between the peptide and viruses | no interaction between the peptide and viruses |
